“Also recorded” adds a separate entry of the source. Ends that are not written are not given here. Peptide text beside a SMILES is read from it. * marks the point of attachment. Myristoyl = CCCCCCCCCCCCCC(=O)*
What was measured:
[1] = tested on: histamine-induced vasodilation; experiment: Awake blood pressure measurement in mice, histamine-induced vasodilation; assay type: in vivo; conditions: AP-EBIN 1 μM/kg i.v.
Experimental: Awake Blood Pressure Measurement in Mice-Mice were anesthetized and surgically prepared for placement of arterial (carotid) and venous (external jugular) catheters. One hour after surgery the blood pressure was monitored directly using a pressure transducer. Subsequent intravenous (i.v.) injections of AP-EBIN peptide (1 μM/kg body weight; green) or control AP peptide (red) and histamine (10 mg/kg body weight) were performed through jugular vein catheter; the arrow indicates the time of injection.
(§1) The activity of nitric oxide synthase 3(eNOS), an endothelial-specific enzyme that produces NO, is regulated by calcium signaling, particularly, through eNOS interaction with calmodulin, and is a known cause of hyperpermeability of endothelial barrier during inflammation. Because EBIN inhibits calcium signaling it was postulated that the barrier-protective effect of EBIN, in part, is due to inhibition of eNOS. Therefore, the effect of EBIN on basal and agonist-induced production of NO was measured. NO formation was measured using porphyrinic NO electrodes coupled to a FAS1 femtostat and a personal computer with electrochemical software (Gamry Instruments). The electrode current, which is proportional to NO concentration, was measured as a function of time.

[2] = tested on: IgE-mediated anaphylactic reaction; experiment: Subcutaneous vascular leak (Evans Blue) following IgE-mediated anaphylactic reaction; assay type: in vivo; conditions: mice, intradermal IgE-HSA, HSA challenge 24 hr later; Myr-peptide 1 μM/kg i.v. 30 min prior to HSA
Experimental: Mice received intradermal injection of IgE-HSA in the ear (A) and back (B) and 24 hr later, iv injection of Evans Blue and HSA (1-3) or saline (4-5). Groups 1 and 4 received saline, 2—control peptide (loss-of-binding) and 3 and 5—Myr-EBIN iv injection (1 μM/kg) 30 min prior to HSA. […] C. […] Evans Blue was extracted from ear tissue and Evans Blue concentration was measured at A=620 nm and normalized to the tissue weight. *, p<0.05, n=6 mice/group.
Airway microvascular hyperpermeability, the result of elevated plasma VEGF, is one of the critical factors contributing to abnormal airway function in patients with classic asthma and its cough variant. Because acute allergic asthmatic response is mainly due to IgE-mediated hypersensitivity, we also determined whether EBIN protects from subcutaneous vascular leak following an IgE-mediated anaphylactic reaction. […] These date indicate that EBIN might be effectively used to improve the lung function and overall health of patients with chronic or acute forms of allergic asthma, and curtail the asthmatic inflammatory response.

LPS-induced sepsis = experiment: Survival in LPS-induced murine model of sepsis; assay type: in vivo, mice; conditions: for survival rate, LPS LD90, pre-treatment with Myr-EBIN: Myr-EBIN 1 microM/kg i.v. 30 min prior, 1 hr and 24 hrs after LPS
Experimental: (n=11-15 mice/group, p<0.001 AP-IP3R3 vs control treatment (AP control) by ANOVA. Mice were anesthetized prior to retro-orbital i.v. injection of IP3R3 with a mixture of ketamine, 10 mg/ml; xylazine, 0.25 mg/ml and acepromazine, 0.25 mg/ml.
CD-1 mice treated with indicated doses of IP3R3 peptide were i.p. injected with LPS at LD80 dose (50 mg/kg LPS) and were monitored for 5 days. Survival rate (%) was plotted vs. peptide dose in logarithm scale. The sigmoidal dose-response curve was fitted to the data points. n=10 mice/group. Mice were anesthetized prior to retro-orbital injection of peptide with 2.5% isoflurane in room air in an anesthesia induction chamber. Anesthesia was maintained during i.v. injection using a specially designed rodent facemask with a coaxial tube (Harvard Apparatus, AH 72-3026).
Male CD1 mice were challenged by intraperitoneal (i.p.) injection of LD90 doses of LPS. The experimental and control groups received retro-orbital, intravenous (i.v.) injection of EBIN attached to the C-terminus of cell permeant antennapedia peptide (AP) or AP alone at a concentration of 1 microM/kg. Mice were injected tree times, 30 minutes prior to and 1 hr and 24 hrs after LPS administration. Mice were anesthetized prior to retro-orbital injection with a mixture of ketamine (10 mg/ml), xylazine (0.25 mg/ml), and acepromazine (0.25 mg/ml).
FIG. 19 compares the effect of pre- and post treatment with EBIN (SEQ ID NO: 3) on lethality from LPS-induced sepsis. […] Male CD1 mice were challenged by intraperitoneal (i.p.) injection of LD90 doses of LPS. The experimental and control groups received tail vein (i.v.) injection of Myr-EBIN 30 min prior (pre-treatment) or 30 min after (post-treatment) LPS or Myr-control loss-of-binding peptide at a concentration of 1 microM/kg. Pre-treatment group, mice were injected tree times, 30 minutes prior to and 1 hr and 24 hrs after LPS administration; treatment group, mice were injected two times, 30 minutes and 24 hrs after LPS administration. Mice were anesthetized prior to retro-orbital injection with a mixture of ketamine (10 mg/ml), xylazine (0.25 mg/ml), and acepromazine (0.25 mg/ml).
The pharmacological effect of IP3R3 peptide was tested in LPS-induced murine model of sepsis. Male CD1 mice were challenged by intraperitoneal injection (i.p.) of LPS (30 mg/kg body weight) and infiltration of neutrophils in lung, a measure of lung inflammation was determined. Lungs were perfused with PBS, weighed, frozen and used for measuring lung myeloperoxidase (MPO) activity, signature of activated neutrophils. […] Furthermore, it was determined whether IP3R3 peptide protects from polymicrobial sepsis induced by cecal ligation and puncture (CLP). CLP causes lethal peritonitis that is accompanied by acute lung injury (ALI). It is well-excepted and clinically relevant method in experimental rodents.
The dose-response of IP3R3 peptide was further tested in LPS-induced murine model of sepsis. Male CD1 mice were challenged by i.p. injection of LPS at LD80 dose. Mice received a retro-orbital i.v. injection of IP3R3 peptide at doses 0.01, 0.033, 0.1, 0.33, 1.0, 3.3 and 10 μM per kg of the body weight. Mice were injected with IP3R3 peptide three times, 30 minutes prior to, and 1 and 24 hrs after LPS administration. A percent of survived animals in each group was plotted as a function of IP3R3 dose. […] The ED50 (effective dose, 50%) as 80 nM/kg was calculated using a three-parameter logistic equation: y=min+([…])/1+10^LogED50-x Where min and max are minimum and maximum of response.
The effect of EBIN on mortality rate from LPS-induced sepsis was determined. Mice received i.v. retro-orbital injection of AP-EBIN or AP control peptide, 30 minutes prior to and 1 hr after LPS administration at LD90 dose. […] In this experiment, Myr-EBIN was injected in tail vein 30 min and 24 hrs after LPS challenged. […] It is concluded that administration of EBIN prior to systemic inflammation has much higher beneficial outcome.

HPAECs [3] = experiment: Agonist-induced intracellular calcium transient in HPAEC monolayers (Fura-2 340/380); assay type: cell-based, Human; conditions: 1 μM Myr-peptide, 50 nM thrombin or 90 μM histamine
Experimental: [Ca2+]i transient after stimulation of HPAEC monolayers with 50 nM thrombin (A) or 90 μM histamine (B). Mean value; n=20 cells. Arrow, time of stimulation.
(§2) To determine the inhibitory properties of EBIN in cells, Human Pulmonary Aorta Endothelial Cell (HPAECs) monolayers pretreated with EBIN or with a control peptide at the concentration of 1 μM were challenged with thrombin. The interaction between EB3 and IP3R3 receptor was analyzed using a Western Blot analysis. […] EBIN but not a control peptide mitigated agonist-induced increase in intracellular calcium. [Ca2-F]i transient after stimulation of HPAEC monolayers with pro-inflammatory cytokines.

EB3/IP3R3 interaction = target: T1, EB3/IP3R3 interaction (Homo sapiens, UniProt Q9UPY8); experiment: EB3-IP3R3 interaction by immunoprecipitation/Western blot in HPAECs challenged with thrombin; assay type: cell-based; conditions: HPAECs pretreated with 1 μM AP-EBIN; 50 nM thrombin
T1 construct: HPAECs pretreated with 1 μM AP-EBIN or control peptide (AP) were challenged with 50 nM thrombin; endogenous in cells; host or cells: HPAEC (human pulmonary aorta endothelial cells)
Experimental: HPAECs pretreated with 1 μM AP-EBIN or control peptide (AP) were challenged with 50 nM thrombin. The interaction between EB3 and IP3R3 was analyzed at different time-points after thrombin stimulation. EB3 was immune-precipitated with specific Abs and resulted precipitates were probed for EB3 and IP3R3.
as §2

HPAECs [4] = experiment: NO production in HPAECs (porphyrinic NO electrodes); assay type: cell-based, Human; conditions: first 20 min
Experimental: HPAECs were pretreated with control peptide (loss-of-activity) or Myr-EBIN and basal (A, in response to addition of L-arginin) and agonist-induced (B, thrombin and histamine) NO production was measured for the first 20 min stimulation.
as §1

IP3R = conditions: background statement, MT destabilizing or stabilizing agents; cited from earlier work
lung injury = conditions: background statement; cited from earlier work
HMVECs = experiment: Thrombin-induced Ca2+ release from stores in HMVECs (Fura 2-AM 340/380 ratio); assay type: cell-based; conditions: 5 μg/ml taxol for 20 min prior to thrombin stimulation
Experimental: A. HMVECs pre-treated with AP-attached IP3R3 peptide or control (AP) peptide were loaded with Fura 2-AM and 340/380 ratio was calculated after stimulation of cells with thrombin (50 nM) in the absence and in the presence of extracellular Ca^2+. Arrow, time of thrombin addition. […] The increase is normalized to control non-treated cells from the same experiment (n=4).
The effects of IP3R peptide and taxol were compared in regulating Ca^2+ release.

[5] = 50 mg/kg LPS, vs loss-of-binding peptide

T1 sequence (Q9UPY8 whole entry): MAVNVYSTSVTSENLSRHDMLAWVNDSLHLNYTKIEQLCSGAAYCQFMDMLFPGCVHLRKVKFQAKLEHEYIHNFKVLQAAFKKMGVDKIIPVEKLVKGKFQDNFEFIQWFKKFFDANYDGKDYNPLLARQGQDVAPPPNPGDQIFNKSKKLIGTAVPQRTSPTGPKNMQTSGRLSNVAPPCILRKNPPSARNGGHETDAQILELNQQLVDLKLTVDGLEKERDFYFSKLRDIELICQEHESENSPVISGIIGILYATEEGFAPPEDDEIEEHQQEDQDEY

Molecule: FTEIPTI (EB binding peptide) [EBIN]
- baseline (systolic) blood pressure [1]: no effect on baseline blood pressure
- histamine-induced blood pressure drop / vasodilation ([1]; histamine 10 mg/kg i.v.): significantly inhibited histamine-induced vasodilation; also recorded: prevented blood pressure drop in response to histamine
- subcutaneous vascular leak (Evans Blue) in ear and back [2]: significantly attenuates subcutaneous vascular leak; also recorded: significantly attenuated
- survival rate, LPS LD90, pre-treatment with Myr-EBIN (LPS-induced sepsis; [5]): reduced mortality
- survival rate, LPS LD90, post-treatment with Myr-EBIN (LPS-induced sepsis; 50 mg/kg LPS, Myr-EBIN 1 microM/kg tail vein 30 min and 24 hrs after LPS, vs loss-of-binding peptide): insignificant improvement in survival rate; also recorded: some but not significant improvement of the survival
- survival / mortality, LPS LD90, AP-EBIN (LPS-induced sepsis; CD1 mice, 50 mg/kg LPS i.p., AP-EBIN 1 microM/kg retro-orbital i.v. starting 30 minutes prior to LPS, 120-hr, vs AP, 50 mg/kg): marked improvement in survival rate; also recorded: reduced mortality
- agonist-induced increase in intracellular calcium ([Ca2+]i transient) (HPAECs [3]): significantly inhibited the intracellular calcium flux
- interaction between EB3 and IP3R3, basal and after thrombin (EB3/IP3R3 interaction): attenuated basal and thrombin-induced interaction between EB3 and IP3R3; also recorded: markedly reduced
- basal NO production (HPAECs [4]; response to L-arginin): no effect; also recorded: did not affect basal NO level
- agonist-induced NO production (HPAECs [4]; thrombin and histamine): significantly attenuated agonist-induced NO production

Molecule: COc1cc2c(c(OC)c1OC)-c1ccc(OC)c(=O)cc1[C@@H](NC(C)=O)CC2 [colchicine]
- IP3-gated release of Ca2+ (IP3R): inhibits IP3-gated release of Ca2+

Molecule: CC(=O)O[C@H]1C(=O)[C@@]2(C)[C@H]([C@H](OC(=O)c3ccccc3)[C@]3(O)C[C@H](OC(=O)[C@H](O)[C@@H](NC(=O)c4ccccc4)c4ccccc4)C(C)=C1C3(C)C)[C@]1(OC(C)=O)CO[C@@H]1C[C@@H]2O [taxol]
- lung injury in mice models (lung injury): attenuate the lung injury
- release of Ca2+ from ER in response to thrombin (HMVECs): inhibits release of Ca^2+ from ER to the same extent as IP3R3 peptide
- IP3-gated release of Ca2+ (IP3R): inhibits IP3-gated release of Ca2+

Molecule: COC(=O)Nc1nc2ccc(C(=O)c3cccs3)cc2[nH]1 [nocodazole]
- IP3-gated release of Ca2+ (IP3R): inhibits IP3-gated release of Ca2+

Molecule: Myr-EBIN: myristoylated EBIN (SEQ ID NO: 3) (Myristoyl-FTEIPTI)
- survival rate, LPS LD90, pre-treatment with Myr-EBIN (LPS-induced sepsis; [5]): significant increase
- agonist-induced increase in intracellular calcium ([Ca2+]i transient) (HPAECs [3]): mitigates agonist-induced increase in intracellular calcium

Molecule: CC[C@H](C)[C@H](NC(=O)[C@H](C)NC(=O)[C@@H](NC(=O)[C@@H]1CCCN1C(=O)[C@@H](NC(=O)[C@H](CCC(=O)O)NC(=O)[C@@H](NC(=O)[C@H](Cc1c[nH]c2ccccc12)NC(=O)[C@H](CC(C)C)NC(=O)[C@H](CCCNC(=N)N)NC(=O)[C@H](C)NC(=O)[C@H](Cc1ccccc1)NC(=O)[C@@H](N)CCCCN)[C@@H](C)O)[C@@H](C)CC)[C@@H](C)O)C(=O)N[C@H](C(=O)O)[C@@H](C)O [IP3R3 peptide, KFARLWTEIPTAIT] (H-KFARLWTEIPTAIT-OH)
- survival / mortality, LD50 LPS challenge (LPS-induced sepsis; 30 mg/kg LPS i.p., peptide i.v. 30 minutes prior to and 1 hr after LPS, vs AP control): marked improvement in survival rate; also recorded: mortality reduction
- toxicity within the dose range (LPS-induced sepsis; mice, 0.01 to 10 μM per kg i.v., three injections): low toxicity

— patent US8912139B2, “Peptide compositions and methods for treating lung injury, asthma, anaphylaxis, angioedema, systemic vascular permeability syndromes, and nasal congestion” (The Board of Trustees of the University of Illinois, priority 2011, dated 2014)
